# Assays:
# [1] = target: EF2K (Homo sapiens, UniProt O00418); assay: Kinase panel selectivity profiling; assay type: biochemical; settings: TBID 1 μM, 125 kinase panel, read-out: % activity of the enzyme
# Source text: (§1) The source of HIPK2 and of all of the other protein kinases used for specificity assays is as described elsewhere.
# (§2) Conditions for the activity assays of all other protein kinases tested in selectivity experiments are as described or referenced in [9].
# [2] = target: BTK (Homo sapiens, UniProt Q06187); assay: Kinase panel selectivity profiling; assay type: biochemical
# Source text: as §1, §2
# [3] = target: EPH-B4 (Homo sapiens, UniProt P54760); assay: Kinase panel selectivity profiling; assay type: biochemical; settings: TBID 1 μM, 125 kinase panel, read-out: % activity of the enzyme
# Source text: as §1, §2
# [4] = target: NUAK1 (Homo sapiens, UniProt O60285); assay: Kinase panel selectivity profiling; assay type: biochemical; settings: TBID 1 μM, 125 kinase panel, read-out: % activity of the enzyme
# Source text: as §1, §2
# [5] = target: MELK (Homo sapiens, UniProt Q14680); assay: Kinase panel selectivity profiling; assay type: biochemical; settings: TBID 1 μM, 125 kinase panel, read-out: % activity of the enzyme
# Source text: as §1, §2
# [6] = target: CK2 (Homo sapiens, UniProt P68400); assay: Kinase panel selectivity profiling; assay type: biochemical
# Source text: as §1, §2
# [7] = target: JNK1 (Homo sapiens, UniProt P45983); assay: Kinase panel selectivity profiling; assay type: biochemical; settings: TBID 1 μM, 125 kinase panel, read-out: % activity of the enzyme
# Source text: as §1, §2
# [8] = target: Lck (Homo sapiens, UniProt P06239); assay: Kinase panel selectivity profiling; assay type: biochemical; settings: TBID 1 μM, 125 kinase panel, read-out: % activity of the enzyme
# Source text: as §1, §2
# [9] = target: IRAK4 (Homo sapiens, UniProt Q9NWZ3); assay: Kinase panel selectivity profiling; assay type: biochemical; settings: TBID 1 μM, 125 kinase panel, read-out: % activity of the enzyme
# Source text: as §1, §2
# [10] = target: DYRK1A (Homo sapiens, UniProt Q13627); assay: Kinase panel selectivity profiling; assay type: biochemical
# Source text: as §1, §2
# [11] = tested on: AMPK; assay: Kinase panel selectivity profiling; assay type: biochemical; settings: TBID 1 μM, 125 kinase panel
# Source text: as §1, §2
# [12] = target: SRPK1 (Homo sapiens, UniProt Q96SB4); assay: Kinase panel selectivity profiling; assay type: biochemical; settings: TBID 1 μM, 125 kinase panel, read-out: % activity of the enzyme
# Source text: as §1, §2
# [13] = target: BRSK2 (Homo sapiens, UniProt Q8IWQ3); assay: Kinase panel selectivity profiling; assay type: biochemical; settings: TBID 1 μM, 125 kinase panel, read-out: % activity of the enzyme
# Source text: as §1, §2
# [14] = target: EPH-B1 (Homo sapiens, UniProt P54762); assay: Kinase panel selectivity profiling; assay type: biochemical; settings: TBID 1 μM, 125 kinase panel, read-out: % activity of the enzyme
# Source text: as §1, §2
# [15] = target: MARK2 (Homo sapiens, UniProt Q7KZI7); assay: Kinase panel selectivity profiling; assay type: biochemical; settings: TBID 1 μM, 125 kinase panel, read-out: % activity of the enzyme
# Source text: as §1, §2
# [16] = target: TAK1 (Homo sapiens, UniProt O43318); assay: Kinase panel selectivity profiling; assay type: biochemical; settings: TBID 1 μM, 125 kinase panel, read-out: % activity of the enzyme
# Source text: as §1, §2
# [17] = target: T1, CK2 (Rattus norvegicus, UniProt P19139); assay: CK2 phosphorylation assay; assay type: biochemical; settings: 20 µM ATP
# T1 construct: Native CK2 and CK1 were purified from rat liver; from tissue; host or cells: rat liver
# Protocol: (§3) Native CK2 and CK1 were purified from rat liver.
# (§4) PIM1, CK2, CK1 phosphorylation assays were performed following similar procedures used for HIPK2 except that preincubation was omitted. In detail, PIM1 activity was determined at 100 µM ATP concentration and in the presence of 30 µM synthetic peptide substrate […]. CK2 and CK1 activities were assayed in a buffer containing 50 mM Tris/HCl (pH 7.5), 100 mM NaCl, 12 mM MgCl2, 100 µM specific peptide substrate […] (for CK2), or 200 µM […] (for CK1) and 20 µM [γ-^33P]ATP (500–1000 c.p.m./pmol).
# [18] = tested on: HepG2 or CEM cells; assay: Cell viability (MTT) and PARP cleavage; assay type: cell-based, human; settings: 6 h, PARP (Figure 6C)
# Protocol: HepG2 cells (human hepatocellular carcinoma) were cultured in Dulbecco's modified Eagle's medium (DMEM; Sigma) supplemented with 10% fetal calf serum, 2 mM L-glutamine, 100 unit/ml penicillin and 100 µg/ml streptomycin; CEM cells (human T lymphoblastoid cells) were cultured n RPMI-1640 (Sigma) with the same supplements. Cells were cultured in an atmosphere containing 5% CO2, at 37°C. Treatments with TBID were performed in the same medium but with 1% fetal calf serum; control cells were treated with the solvent (DMSO). Total cell lysates were prepared as in [29].
# Cell viability was evaluated by means of MTT (3-(4,5-dimethylthiazol-2-yl)-[…] bromide) reagent; 10^5 cells/100 µl were incubated in a 96-well plate and treated for 6 h as indicated. 1 h before the end of the incubation, 10 µl of MTT solution (5 mg/ml in PBS) was added to each well. Incubations were stopped by addition of 20 µl of lysis solution at pH 4.7, as described elsewhere. Plates were read for OD at λ 590 nm, in a Titertek Multiskan Plus plate reader (Flow Laboratories). Apoptosis was evaluated looking for the cleavage of the caspase substrate PARP with anti-PARP antibody (Roche), recognizing both the full length (116 kDa) and the cleaved fragment (85 kDa) of PARP.
# [19] = tested on: CK1; assay: CK1 phosphorylation assay; assay type: biochemical, rat; settings: 20 µM ATP
# Protocol: as §3, §4
# [20] = tested on: Ser46 of p53; assay: Phosphorylation of p53 Ser46 in treated CEM cells (WB); assay type: cell-based, human; settings: 6 h treatment
# Protocol: Treatments with TBID were performed in the same medium but with 1% fetal calf serum; control cells were treated with the solvent (DMSO). Total cell lysates were prepared as in [29].
# Endogenous HIPK2 activity was evaluated by measuring the phosphorylation level of its target site Ser46 of p53: to this purpose, CEM cells were treated for 6 h as indicated, then lysed. […] Bands were quantified by Carestream Molecular Imaging Software (Kodak) and the obtained values were normalized to total p53 signal with a Cell Signaling Technology antibody; anti-actin (Sigma) was used as loading control.
# [21] = target: T2, PIM1 (Homo sapiens, UniProt P11309); assay: PIM1 phosphorylation assay; assay type: biochemical; settings: 100 µM ATP
# T2 construct: The source of HIPK2 and of all of the other protein kinases used for specificity assays is as described elsewhere
# Protocol: as §4
# [22] = target: T3, HIPK2 (Homo sapiens, UniProt Q9H2X6); assay: HIPK2 kinase inhibition assay (33P-ATP, peptide […]); assay type: biochemical; settings: 20 µM ATP; in vitro
# T3 construct: The source of HIPK2 and of all of the other protein kinases used for specificity assays is as described elsewhere
# Protocol: The source of HIPK2 and of all of the other protein kinases used for specificity assays is as described elsewhere. […] The reaction was stopped by addition of 5 μl of 0.5 M orthophosphoric acid before spotting aliquots onto phosphocellulose filters. Filters were washed in 75 mM phosphoric acid (5-10 ml/each) four times and then once in methanol and dried before counting.
# [23] = tested on: panel of 76 protein kinases; assay: Selectivity parameters (Lorenz curve, Gini coefficient, hit rate) of TBID; assay type: biochemical
# Protocol: as §2
# Lorenz curves were derived from the selectivity data. Gini coefficients and hit rates (expressing the percent of kinases inhibited >50% by a given compound) were calculated as described in [25].
# [24] = 10 µM TBID, panel of 76 protein kinases, read-out: residual activity
# [25] = TBID 1 μM, 125 kinase panel, read-out: % activity of the enzyme
# Chain of CK2 (Homo sapiens, UniProt P68400) (P68400 whole entry): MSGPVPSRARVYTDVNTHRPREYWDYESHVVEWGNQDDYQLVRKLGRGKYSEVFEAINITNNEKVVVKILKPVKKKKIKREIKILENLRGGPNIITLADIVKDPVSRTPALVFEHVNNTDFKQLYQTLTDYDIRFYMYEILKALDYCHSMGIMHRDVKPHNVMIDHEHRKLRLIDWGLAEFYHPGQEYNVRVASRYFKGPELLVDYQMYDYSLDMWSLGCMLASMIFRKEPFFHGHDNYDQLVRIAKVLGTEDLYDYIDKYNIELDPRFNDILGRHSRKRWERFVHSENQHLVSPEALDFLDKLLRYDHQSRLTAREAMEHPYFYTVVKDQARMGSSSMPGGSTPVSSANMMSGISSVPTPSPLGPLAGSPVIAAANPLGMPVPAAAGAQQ
# Chain of BTK (Q06187 whole entry): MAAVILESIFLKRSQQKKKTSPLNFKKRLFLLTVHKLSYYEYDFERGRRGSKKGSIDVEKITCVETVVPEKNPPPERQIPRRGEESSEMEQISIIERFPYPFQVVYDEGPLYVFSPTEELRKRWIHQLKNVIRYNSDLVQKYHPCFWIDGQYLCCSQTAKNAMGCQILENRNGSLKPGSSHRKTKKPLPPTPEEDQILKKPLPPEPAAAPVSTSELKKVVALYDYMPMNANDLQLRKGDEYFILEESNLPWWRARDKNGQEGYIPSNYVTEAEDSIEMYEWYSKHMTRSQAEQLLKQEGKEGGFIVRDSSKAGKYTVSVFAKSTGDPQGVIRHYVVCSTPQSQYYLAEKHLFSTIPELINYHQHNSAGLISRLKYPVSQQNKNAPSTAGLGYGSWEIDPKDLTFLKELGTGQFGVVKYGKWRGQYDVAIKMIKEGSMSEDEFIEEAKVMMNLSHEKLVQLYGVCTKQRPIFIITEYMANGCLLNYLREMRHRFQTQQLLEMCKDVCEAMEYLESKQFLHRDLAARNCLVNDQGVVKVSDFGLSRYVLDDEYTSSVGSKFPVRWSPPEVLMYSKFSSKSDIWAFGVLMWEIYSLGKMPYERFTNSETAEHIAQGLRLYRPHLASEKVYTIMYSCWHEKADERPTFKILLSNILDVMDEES
# T1 sequence (P19139 whole entry): as the sequence (P68400 whole entry) above, with G335S, S337A, S338G, P340A, P378S, M381I counted along it
# T1 sequence (P67874 whole entry partner): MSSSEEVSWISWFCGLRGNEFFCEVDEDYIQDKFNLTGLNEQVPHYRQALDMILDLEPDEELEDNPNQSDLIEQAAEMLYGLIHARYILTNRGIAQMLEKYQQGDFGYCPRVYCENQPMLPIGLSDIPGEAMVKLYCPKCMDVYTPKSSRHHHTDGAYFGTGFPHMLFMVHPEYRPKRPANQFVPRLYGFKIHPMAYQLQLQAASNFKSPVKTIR
# Chain of EPH-B1 (P54762 18-984): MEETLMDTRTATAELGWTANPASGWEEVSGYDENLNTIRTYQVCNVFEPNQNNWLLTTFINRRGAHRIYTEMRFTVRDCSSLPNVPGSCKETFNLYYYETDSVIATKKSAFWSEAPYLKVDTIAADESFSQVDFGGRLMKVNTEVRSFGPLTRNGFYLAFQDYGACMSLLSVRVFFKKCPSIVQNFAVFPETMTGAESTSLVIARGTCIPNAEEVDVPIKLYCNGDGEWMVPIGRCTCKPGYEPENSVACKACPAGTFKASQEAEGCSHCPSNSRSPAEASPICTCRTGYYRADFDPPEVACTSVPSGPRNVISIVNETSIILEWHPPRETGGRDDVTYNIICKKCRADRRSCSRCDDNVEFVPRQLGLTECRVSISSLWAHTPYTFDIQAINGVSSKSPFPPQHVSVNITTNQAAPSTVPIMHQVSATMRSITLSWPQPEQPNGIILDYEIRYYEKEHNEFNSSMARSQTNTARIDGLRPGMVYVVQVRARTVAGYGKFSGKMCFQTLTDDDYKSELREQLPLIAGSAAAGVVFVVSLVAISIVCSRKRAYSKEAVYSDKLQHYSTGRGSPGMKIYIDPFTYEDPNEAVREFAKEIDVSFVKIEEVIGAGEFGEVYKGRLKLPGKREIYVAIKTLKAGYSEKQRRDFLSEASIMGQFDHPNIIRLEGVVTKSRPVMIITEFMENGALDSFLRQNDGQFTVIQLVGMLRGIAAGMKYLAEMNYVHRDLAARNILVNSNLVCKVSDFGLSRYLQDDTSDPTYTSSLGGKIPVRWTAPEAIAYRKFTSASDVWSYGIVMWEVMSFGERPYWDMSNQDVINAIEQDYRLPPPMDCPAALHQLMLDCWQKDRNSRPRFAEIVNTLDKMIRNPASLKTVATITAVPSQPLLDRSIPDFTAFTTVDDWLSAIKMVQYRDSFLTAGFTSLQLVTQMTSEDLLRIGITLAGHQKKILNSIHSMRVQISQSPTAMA
# Chain of SRPK1 (Q96SB4 whole entry): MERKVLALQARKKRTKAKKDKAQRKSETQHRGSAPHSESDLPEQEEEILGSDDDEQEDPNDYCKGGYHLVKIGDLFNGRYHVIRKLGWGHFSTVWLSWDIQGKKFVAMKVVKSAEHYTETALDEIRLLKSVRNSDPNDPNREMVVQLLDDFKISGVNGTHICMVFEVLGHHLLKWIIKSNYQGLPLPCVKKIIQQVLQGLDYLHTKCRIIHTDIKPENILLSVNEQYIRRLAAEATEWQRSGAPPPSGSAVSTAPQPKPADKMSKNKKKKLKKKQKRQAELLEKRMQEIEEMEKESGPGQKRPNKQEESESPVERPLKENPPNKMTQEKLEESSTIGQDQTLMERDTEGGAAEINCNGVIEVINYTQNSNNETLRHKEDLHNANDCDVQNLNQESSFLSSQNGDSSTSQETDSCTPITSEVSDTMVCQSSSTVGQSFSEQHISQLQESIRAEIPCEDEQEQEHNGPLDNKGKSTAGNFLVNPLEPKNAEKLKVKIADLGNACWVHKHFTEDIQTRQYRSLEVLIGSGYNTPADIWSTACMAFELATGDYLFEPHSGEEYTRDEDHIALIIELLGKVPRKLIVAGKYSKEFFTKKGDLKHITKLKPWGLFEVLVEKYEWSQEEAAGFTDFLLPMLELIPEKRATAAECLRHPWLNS
# Chain of JNK1 (P45983 whole entry): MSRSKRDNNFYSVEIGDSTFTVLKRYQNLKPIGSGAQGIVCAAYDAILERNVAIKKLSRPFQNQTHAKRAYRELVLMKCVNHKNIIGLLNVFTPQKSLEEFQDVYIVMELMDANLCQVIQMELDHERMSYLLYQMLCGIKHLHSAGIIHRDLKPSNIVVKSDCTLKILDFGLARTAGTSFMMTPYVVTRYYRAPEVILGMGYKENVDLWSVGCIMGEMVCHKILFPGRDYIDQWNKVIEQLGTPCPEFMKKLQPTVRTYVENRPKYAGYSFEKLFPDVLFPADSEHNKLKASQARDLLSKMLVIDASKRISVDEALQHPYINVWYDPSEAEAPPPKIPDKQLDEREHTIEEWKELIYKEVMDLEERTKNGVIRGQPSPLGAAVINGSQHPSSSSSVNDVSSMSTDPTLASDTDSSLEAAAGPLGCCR
# T2 sequence (P11309 whole entry, species assumed): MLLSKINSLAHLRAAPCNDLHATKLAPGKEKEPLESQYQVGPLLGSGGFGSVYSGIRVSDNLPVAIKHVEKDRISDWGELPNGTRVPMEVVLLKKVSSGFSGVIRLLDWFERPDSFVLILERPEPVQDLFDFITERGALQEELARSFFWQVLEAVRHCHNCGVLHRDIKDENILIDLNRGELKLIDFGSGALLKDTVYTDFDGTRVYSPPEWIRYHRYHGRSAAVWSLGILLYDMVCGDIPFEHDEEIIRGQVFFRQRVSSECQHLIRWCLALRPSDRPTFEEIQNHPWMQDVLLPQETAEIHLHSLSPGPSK
# Chain of MARK2 (Q7KZI7 whole entry): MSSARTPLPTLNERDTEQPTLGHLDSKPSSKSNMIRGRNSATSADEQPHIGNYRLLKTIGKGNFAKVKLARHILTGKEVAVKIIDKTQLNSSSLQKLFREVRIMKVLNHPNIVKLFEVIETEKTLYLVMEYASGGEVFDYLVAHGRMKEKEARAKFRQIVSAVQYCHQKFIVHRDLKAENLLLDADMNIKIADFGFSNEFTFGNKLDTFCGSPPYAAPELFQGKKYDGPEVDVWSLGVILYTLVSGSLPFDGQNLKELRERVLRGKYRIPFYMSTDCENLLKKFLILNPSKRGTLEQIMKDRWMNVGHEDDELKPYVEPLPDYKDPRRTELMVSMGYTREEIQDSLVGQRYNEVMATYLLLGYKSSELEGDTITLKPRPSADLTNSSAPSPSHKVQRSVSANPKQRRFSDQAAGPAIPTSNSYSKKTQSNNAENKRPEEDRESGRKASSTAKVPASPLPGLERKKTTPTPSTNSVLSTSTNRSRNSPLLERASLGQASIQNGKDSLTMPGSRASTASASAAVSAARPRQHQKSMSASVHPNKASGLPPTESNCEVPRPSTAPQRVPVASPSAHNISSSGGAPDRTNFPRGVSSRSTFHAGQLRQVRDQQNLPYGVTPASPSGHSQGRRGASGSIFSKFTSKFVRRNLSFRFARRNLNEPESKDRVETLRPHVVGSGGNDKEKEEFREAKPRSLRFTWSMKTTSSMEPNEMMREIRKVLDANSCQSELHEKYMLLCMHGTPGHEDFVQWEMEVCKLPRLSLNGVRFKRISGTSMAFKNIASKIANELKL
# Chain of Lck (P06239 whole entry): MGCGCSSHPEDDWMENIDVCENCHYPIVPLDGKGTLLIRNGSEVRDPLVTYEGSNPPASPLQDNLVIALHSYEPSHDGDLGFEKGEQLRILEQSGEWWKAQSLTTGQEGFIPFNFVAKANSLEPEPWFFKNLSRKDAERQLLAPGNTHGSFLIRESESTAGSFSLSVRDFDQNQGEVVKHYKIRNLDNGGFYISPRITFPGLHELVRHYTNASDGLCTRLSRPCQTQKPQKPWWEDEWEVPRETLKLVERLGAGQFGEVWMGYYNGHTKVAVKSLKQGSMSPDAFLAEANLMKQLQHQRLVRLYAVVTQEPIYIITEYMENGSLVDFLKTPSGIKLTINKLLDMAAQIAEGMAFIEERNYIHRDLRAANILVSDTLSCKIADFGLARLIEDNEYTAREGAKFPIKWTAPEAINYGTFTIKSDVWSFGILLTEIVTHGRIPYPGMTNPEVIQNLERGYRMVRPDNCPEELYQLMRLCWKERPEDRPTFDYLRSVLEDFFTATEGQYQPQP
compound,measurement,setting,value
"O=C1c2c(Br)c(Br)c(Br)c(Br)c2C(=O)N1c1ncc[nH]1 [TBID, 4,5,6,7-Tetrabromo-2-(1H-imidazol-2-yl)isoindoline-1,3-dione]",activity at 1 µM,[1],111%
same,remaining activity at 10 µM,[2]; [24],29%
same,activity at 1 µM,[2]; [25],84%
same,activity at 1 µM,[3],114%
same,activity at 1 µM,[4],81%
same,activity at 1 µM,[5],110%
same,remaining activity at 10 µM,[6]; [24],48%
same,activity at 1 µM,[6]; [25],87%
same,activity at 1 µM,[7],106%
same,activity at 1 µM,[8],109%
same,activity at 1 µM,[9],101%
same,remaining activity at 10 µM,[10]; [24],72%
same,activity at 1 µM,[10]; [25],104%
same,% activity of the enzyme,[11],87%
same,activity at 1 µM,[12],77%
same,activity at 1 µM,[13],99%
same,activity at 1 µM,[14],96%
same,activity at 1 µM,[15],100%
same,activity at 1 µM,[16],78%
same,IC50,[17],5.5 µM
same,cell toxicity,[18],devoid of cell toxicity
same,IC50,[19],> 40 µM
same,phosphorylation level of p53 Ser46,[20],markedly reduces
same,IC50,[21],> 40 µM
same,IC50,[22],330 nM
same,number of kinases inhibited >90%,[23]; 10 µM TBID,1
same,Gini coefficient,"[23]; 10 µM, 76 PKs",0.592
same,Hit rate,"[23]; 10 µM, 76 PKs, kinases inhibited >50%",0.10
